From patent publication US20090082367A1, “TRIAZOLE DERIVATIVE OR A SALT THEREOF” (ASTELLAS PHARMA INC., priority 2006, published 2009)

Assays:
[1] = biological target: T1, human recombinant 11β-HSD1 (Homo sapiens, UniProt P28845); test: Measuring test of human 11β-HSD1-inhibitory activity (HTRF cortisol detection); format: biochemical; details: human recombinant 11β-HSD1, 20 nM cortisone, 40 μM NADPH, pH 6.6, room temperature 1 hour
T1 construct: made in house
Method: The procedure for measuring 11β-HSD1-inhibitory activity is as follows. In this connection, the enzyme reaction and measurement were carried out using a 384-well plate. The enzyme was prepared in accordance with a reference (Walker E. A. et al., Journal of Biological Chemistry, 2001, vol. 276, p. 21343-21350). The reaction was carried out by adding the compound to be tested having varied concentration to a reaction liquid consisting of 10 mM phosphate buffer (pH 6.6), 20 nM cortisone, 40 μM reduced nicotinamide adenine dinucleotide phosphate (NADPH) and human recombinant 11β-HSD1, and then incubating at room temperature for 1 hour (10 μl/well). The compound to be tested was prepared by dissolving in dimethyl sulfoxide (DMSO) to a DMSO concentration of 1% in the reaction liquid. After the enzyme reaction, the enzyme inhibitory activity was measured by detecting cortisol using a homogeneous time-resolved fluorescence method (HTRF). Each of the XL-665-labeled cortisol containing 400 μM carbenoxolone and cryptate-labeled cortisol antibody (CIS bio international) was added in 5 μl/well portions and incubated at room temperature for 2 hours, and then the fluorescence intensity was measured using a fluorophotometer (trade name: Discovery, Perkin Elmer), and the enzyme inhibitory activity was calculated from the fluorescence intensity ratio at two wavelengths (665 nm/620 nm).
(§1) The measured result was calculated by averaging the values of 3 wells of the same condition. The ratio when DMSO was added instead of the compound to be tested was regarded as 0% and the ratio when 11β-HSD1 or 11β-HSD2 was not added was regarded as 100%, thereby calculating 50% inhibition concentration of the compound to be tested as IC50 of the compound inhibitory activity.

[2] = biological target: T2, human recombinant 11β-HSD2 (Homo sapiens, UniProt P80365); test: Measuring test of human 11β-HSD2-inhibitory activity (HTRF cortisol detection); format: biochemical; details: human recombinant 11β-HSD2, 200 nM cortisol, 200 μM NAD, pH 8.0, 37° C. 2 hours
T2 sequence (P80365 1-405): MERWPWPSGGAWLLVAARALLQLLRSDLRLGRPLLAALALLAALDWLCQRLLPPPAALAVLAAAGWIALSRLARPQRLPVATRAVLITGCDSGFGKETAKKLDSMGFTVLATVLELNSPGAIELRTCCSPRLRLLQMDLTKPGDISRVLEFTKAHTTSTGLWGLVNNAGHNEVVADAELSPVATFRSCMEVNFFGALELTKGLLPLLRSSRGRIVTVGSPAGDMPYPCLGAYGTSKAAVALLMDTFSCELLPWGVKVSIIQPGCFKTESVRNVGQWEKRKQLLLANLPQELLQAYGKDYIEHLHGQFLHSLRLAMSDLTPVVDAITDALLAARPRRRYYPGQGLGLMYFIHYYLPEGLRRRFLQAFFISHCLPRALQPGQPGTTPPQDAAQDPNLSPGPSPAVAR
Method: Measurement of the 11β-HSD2 activity was carried out by the same method of the 11β-HSD1 activity measurement, except for the enzyme reaction conditions. The enzyme reaction was carried out by adding the compound to be tested having varied concentration to a reaction liquid consisting of 40 mM Tris-HCl buffer (pH 8.0), 200 nM cortisol, 200 μM nicotinamide adenine dinucleotide (NAD) and human recombinant 11β-HSD2, and then incubating at 37° C. for 2 hours (10 μl/well).
as §1

[3] = system: ob/ob male mice; test: Ob/ob mouse blood glucose-lowering test; format: in vivo; details: oral 10 mg/kg bid for 9 days, non-fasting, 12 hours after final administration, n=6
Method: (§2) Using 6% 2-hydroxypropyl-β-cyclodextrin as the solvent, a compound liquid was prepared. Blood glucose values were measured under non-fasting using ob/ob male mice of 9 weeks of age (blood glucose value, 300 mg/dl or more), and then arrangement into groups was carried out at random in such a manner that their blood glucose values became uniform. The compound to be tested was repeatedly orally administered (10 mg/kg, bid) twice a day for 9 days, and blood glucose values after 12 hours of the final administration were measured (n=6). The blood glucose value was measured by carrying out colorimetric determination of the amount of glucose (mg/dl) in heparin blood plasma obtained by collecting blood in a heparin-coated glass capillary and subsequently centrifuging it.

[4] = system: ob/ob male mice; test: Ob/ob mouse triglyceride-lowering test; format: in vivo; details: oral 10 mg/kg bid for 9 days, non-fasting, 12 hours after final administration, n=6
Method: as §2, with “Triglyceride” for “Blood glucose”, “age,” for “age (blood glucose value, 300 mg/dl or more),”, “triglyceride” for “blood glucose”, “Triglyceride” for “The blood glucose value”, “triglyceride” for “glucose”

T1 sequence (P28845 whole entry): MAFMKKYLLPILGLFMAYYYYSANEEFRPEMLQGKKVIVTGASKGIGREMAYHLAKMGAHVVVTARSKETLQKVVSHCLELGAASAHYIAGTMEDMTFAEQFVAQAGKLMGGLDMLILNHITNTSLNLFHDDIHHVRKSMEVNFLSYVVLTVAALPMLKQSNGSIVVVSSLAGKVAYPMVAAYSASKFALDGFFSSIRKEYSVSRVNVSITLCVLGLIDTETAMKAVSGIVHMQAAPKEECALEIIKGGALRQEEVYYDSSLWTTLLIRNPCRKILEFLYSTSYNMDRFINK

| Compound | IC50 [1] [µM] | IC50 [2] [µM] | blood glucose-lowering action [3] [%] | triglyceride-lowering action [4] [%] |
| --- | --- | --- | --- | --- |
| CN(C1CCC1)C(C)(C)c1nnc(C2CC2)n1C1CC1 [Example 57] | 0.07 | > 30 |  |  |
| CC(C)(c1ccc(Br)s1)c1nnc(C2CC2)n1C1CC1 [Example 3, 3-[1-(5-bromo-2-thienyl)-1-methylethyl]-4,5-dicyclopropyl-4H-1,2,4-triazole] | 0.0079 | > 3 | 27 | 50 |
| CC(C)(c1cccc(Cl)n1)c1nnc(C2CC2)n1CCc1ccccc1 [Example 85] | 0.034 | > 10 |  |  |
| CC(C)(c1ccc(Br)s1)c1nnc(C2CC2)n1CCc1c(F)cccc1F [Example 167] | 0.07 | > 30 | 24 |  |
| Cn1c(C2(C)CC2)nnc1C(C)(C)c1ccc(Cl)s1 [Example 283] | 0.0024 | > 3 |  |  |
| CC(C)(c1cc(Br)cs1)c1nnc(C2CC2)n1C1CC1 [Example 77] | 0.012 | > 10 |  |  |
| Brc1ccn(C2(c3nnc(C4CC4)n3C3CC3)CCC2)c1 [Example 213] | 0.041 | > 10 |  |  |
| CC(C)(c1ccsc1)c1nnc(C2CCC2)n1C1CC1 [Example 173] | 0.012 | > 10 |  |  |
| Fc1ccc(CCn2c(C3CC3)nnc2C2(c3ccccn3)CCC2)cc1 [Example 198] | 0.025 | > 10 |  |  |
| CC(C)(c1ccccn1)c1nnc(C2CC2)n1CCc1c(F)cccc1F [Example 154] | 0.038 | > 30 | 21 |  |
| CC(C)(c1ccsc1)c1nnc(C2CC2)n1C1CC1 [Example 172] | 0.019 | > 10 | 27 |  |
| CC(C)(c1sc(C(F)(F)F)cc1F)c1nnc(C2CC2)n1C1CC1 [Example 280] | 0.0047 | > 3 | 35 | 42 |
| CC(C)(c1ccc(C(F)(F)F)s1)c1nnc(C2CC2)n1C1CC1 [Example 169] | 0.024 | > 10 |  |  |
| Cn1c(C(C)(C)C)nnc1C(C)(C)c1ccc(Cl)s1 [Example 281] | 0.0052 | > 3 |  |  |
| CC(C)(c1nnc(C2CC2)n1C1CC1)n1cccc1Cl [Example 9, 3-[1-(2-chloro-1H-pyrrol-1-yl)-1-methylethyl]-4,5-dicyclopropyl-4H-1,2,4-triazole] | 0.062 | > 30 |  |  |
